From paper PMC7080406 (eLife, 2020)
Read-outs that look alike come from different tables or passages of the source.

How the values were obtained:
[1] = target: T1, MT1 (Homo sapiens, UniProt P48039); test: [3H]melatonin competition radioligand binding, MT1 membranes; conditions: read-out: MT1 pKi ± SEM (converted)
T1 construct: expressed in transfected cells; host or cells: HEK293T (ATCC CRL-11268), transient transfection
Experimental: (§1) The Radioligand binding assays were conducted by the NIMH Psychoactive Drug Screening Program (PDSP). The NIMH PDSP is directed by Bryan L. Roth, MD, PhD, at the University of North Carolina at Chapel Hill, North Carolina, and Program Officer Jamie Driscoll at NIMH, Bethesda, MD. Binding assay procedures and protocols are also available online at http://pdspdb.unc.edu/pdspWeb/?site=assays. […] Assay plates were sealed and incubated for 4 hr at 37°C in a humidified incubator until harvesting. Plates were harvested using vacuum filtration onto 0.3% polyethyleneimine pre-soaked 96-well Filtermat A (PerkinElmer) and washed three times with cold wash buffer (50 mM Tris, pH 7.4). Filters were dried and melted with a scintillation cocktail (Meltilex, PerkinElmer). Radioactivity was counted using a Wallac TriLux Microbeta counter (PerkinElmer). Results were analyzed using GraphPad Prism 7.0.

[2] = target: T2, MT2 (Homo sapiens, UniProt P49286); test: GloSensor Gi/o-mediated cAMP production inhibition assay, MT2; type: cell-based; design: expressed in transfected cells; host or cells: HEK293T (ATCC CRL-11268), transient transfection; conditions: for EC50: Gi/o mediated
T2 sequence (P49286 1-362): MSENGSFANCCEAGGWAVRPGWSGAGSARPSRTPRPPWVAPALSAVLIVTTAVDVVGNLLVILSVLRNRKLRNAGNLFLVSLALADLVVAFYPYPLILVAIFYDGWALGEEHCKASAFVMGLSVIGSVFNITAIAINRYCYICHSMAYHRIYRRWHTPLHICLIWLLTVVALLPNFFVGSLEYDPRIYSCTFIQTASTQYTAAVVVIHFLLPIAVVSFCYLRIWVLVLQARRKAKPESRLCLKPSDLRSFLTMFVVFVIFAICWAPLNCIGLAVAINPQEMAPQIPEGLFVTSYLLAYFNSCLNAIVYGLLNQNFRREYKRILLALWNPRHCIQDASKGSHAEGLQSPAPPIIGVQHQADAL
Experimental: Briefly, HEK293 T cells (as above) were transiently co-transfected with receptor (MT1 or MT2) and GloSensor cAMP (Promega) plasmids overnight, plated in Poly-L-Lysine coated 384-well white clear bottom plates in DMEM + 1% dialyzed FBS. Cells were used for assays at a minimum of 6 hr after plating. Culture medium was first removed and cells were stimulated with drugs in assay buffer (1x HBSS, 20 mM HEPES, 1 mg/ml BSA, 0.1 mg/ml ascorbic acid, pH 7.4) for 15 min at room temperature (this and all the following steps), followed by addition of a mixture of isoproterenol (final of 100 nM) and luciferin (final of 1 mM) for Gi/o-cAMP production inhibition assays and luciferin (final of 1 mM) for Gs-cAMP production assays. The plates were counted for luminescence after 25 min in a luminescence plate reader. Results were analyzed using GraphPad Prism 7.0.

[3] = target: T2, MT2; test: Bias factor, Gi-cAMP versus Tango (Black and Leff operational model), MT2; type: cell-based; design: expressed in transfected cells; host or cells: HEK293T (ATCC CRL-11268), transient transfection; conditions: G-protein over β-arrestin at MT2; reference melatonin; 10^ΔΔLog(τ/KA)
Experimental: Bias factors were estimated according to the published procedure [Kenakin et al. (2012)] with modifications. Briefly, normalized and pooled results were analyzed by fitting the Black and Leff operational model in Prism 7.0 to obtain Log(τ/KA) values for each pathway (Tango and Gi-cAMP). Within each signaling pathway, a difference of Log(τ/KA), ΔLog(τ/KA), between a test compound and selected reference (melatonin in this case) was calculated. For a testing compound, the difference of ΔLog(τ/KA), ΔΔLog(τ/KA), was then obtained between two pathways. The bias factor is 10^ΔΔLog(τ/KA).

[4] = target: T3, 5-HT7A (Homo sapiens, UniProt P34969); test: Off-target radioligand binding, 5-HT7A
T3 construct: expressed in transfected cells; host or cells: HEK293T, transient transfection (NIMH PDSP)
T3 sequence (P34969 1-445 isoform P34969-2): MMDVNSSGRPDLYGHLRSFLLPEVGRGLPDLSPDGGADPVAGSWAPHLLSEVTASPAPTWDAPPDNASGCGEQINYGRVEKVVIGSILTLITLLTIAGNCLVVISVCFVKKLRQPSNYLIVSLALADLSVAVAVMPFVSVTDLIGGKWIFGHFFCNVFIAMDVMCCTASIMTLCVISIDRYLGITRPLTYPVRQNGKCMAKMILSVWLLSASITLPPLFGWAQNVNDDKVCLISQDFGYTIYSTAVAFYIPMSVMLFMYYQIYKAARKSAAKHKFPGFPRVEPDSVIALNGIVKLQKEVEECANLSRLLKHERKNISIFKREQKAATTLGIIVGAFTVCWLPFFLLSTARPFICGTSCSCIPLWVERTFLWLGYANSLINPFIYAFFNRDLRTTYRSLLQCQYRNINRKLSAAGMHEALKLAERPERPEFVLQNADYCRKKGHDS
Experimental: as §1

T1 sequence (P48039 whole entry): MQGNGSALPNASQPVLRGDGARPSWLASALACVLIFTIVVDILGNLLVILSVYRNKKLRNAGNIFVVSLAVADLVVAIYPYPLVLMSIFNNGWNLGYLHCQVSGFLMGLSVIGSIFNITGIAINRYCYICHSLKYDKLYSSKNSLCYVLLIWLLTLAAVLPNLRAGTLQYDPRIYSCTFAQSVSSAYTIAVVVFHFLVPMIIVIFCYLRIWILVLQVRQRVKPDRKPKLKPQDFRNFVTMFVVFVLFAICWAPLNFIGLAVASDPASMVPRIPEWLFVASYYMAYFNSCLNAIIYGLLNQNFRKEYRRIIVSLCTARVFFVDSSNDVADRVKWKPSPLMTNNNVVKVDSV

## COc1ccc2[nH]cc(CCNC(N)=O)c2c1 [Compound 28, [2-(5-methoxy-1H-indol-3-yl)ethyl]urea]
[1]
  Ki: 16.6 nM
[2]; Antilog (log(Emax/EC50) MT2 - log (Emax/EC50) MT1), values below 1 = MT1 selectivity
  MT2/MT1 Selectivity: 0.7 fold
[2]; SEM, N = 3, read-out: MT2 pEC50 ± SEM (converted)
  EC50: 0.0447 nM
[2]; read-out: MT2 EC50
  EC50: 0.04 nM
[2]; MT2, activation compared to melatonin, read-out: MT2 Emax ± SEM
  Emax: < 70%
[2]; ligand efficiency (based on EC50)
  MT2 LE: 0.85 kcal/mol per non-hydrogen atom
[3]
  bias factor: 33.9
[4]; 10 μM
  inhibition at 10 µM: > 50%
[4]; read-out: pKi, 5-HT7A (converted)
  Ki: 288 nM
